Ki, selectivity ratio and inhibition data for 10 compounds are collected here from ChEMBL document CHEMBL4342412, “How To Design Selective Ligands for Highly Conserved Binding Sites: A Case Study Using N-Myristoyltransferases as a Model System” (J Med Chem, 2020).

In series [1] the target is T1, Glycylpeptide N-tetradecanoyltransferase (Leishmania major, UniProt Q4Q5S8).
T1 sequence (Q4Q5S8 whole entry): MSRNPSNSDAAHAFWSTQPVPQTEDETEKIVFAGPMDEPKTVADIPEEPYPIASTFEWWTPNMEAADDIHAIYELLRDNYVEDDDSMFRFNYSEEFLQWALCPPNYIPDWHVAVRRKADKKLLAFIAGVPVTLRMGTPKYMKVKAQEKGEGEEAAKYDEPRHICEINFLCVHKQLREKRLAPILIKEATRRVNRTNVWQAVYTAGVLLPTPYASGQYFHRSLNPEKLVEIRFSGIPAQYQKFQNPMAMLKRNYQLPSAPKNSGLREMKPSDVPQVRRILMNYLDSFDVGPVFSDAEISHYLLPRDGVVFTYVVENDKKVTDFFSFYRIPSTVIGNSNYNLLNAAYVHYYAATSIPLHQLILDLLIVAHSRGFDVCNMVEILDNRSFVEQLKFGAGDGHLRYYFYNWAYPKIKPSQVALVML

The subject of series [2] is human NMT1 versus Leishmania major NMT. Briefly: in vitro. The conditions noted are these: human (numerator) and Leishmania major (denominator).
Description: Selectivity index, ratio of Ki for inhibition of N-terminal TEV cleavage site-fused His6 tagged human NMT1 (115 to 496 residues) to Ki for inhibition of N-terminal TEV cleavage site-fused His6 tagged Leishmania major NMT (11 to 421 residues)
For series [3], the target named is Glycylpeptide N-tetradecanoyltransferase 1 (Homo sapiens, UniProt P30419, L495M/N473H/Q496L).
The target of series [4] is T2, Glycylpeptide N-tetradecanoyltransferase 1 (Homo sapiens, UniProt P30419).
T2 sequence (P30419 whole entry): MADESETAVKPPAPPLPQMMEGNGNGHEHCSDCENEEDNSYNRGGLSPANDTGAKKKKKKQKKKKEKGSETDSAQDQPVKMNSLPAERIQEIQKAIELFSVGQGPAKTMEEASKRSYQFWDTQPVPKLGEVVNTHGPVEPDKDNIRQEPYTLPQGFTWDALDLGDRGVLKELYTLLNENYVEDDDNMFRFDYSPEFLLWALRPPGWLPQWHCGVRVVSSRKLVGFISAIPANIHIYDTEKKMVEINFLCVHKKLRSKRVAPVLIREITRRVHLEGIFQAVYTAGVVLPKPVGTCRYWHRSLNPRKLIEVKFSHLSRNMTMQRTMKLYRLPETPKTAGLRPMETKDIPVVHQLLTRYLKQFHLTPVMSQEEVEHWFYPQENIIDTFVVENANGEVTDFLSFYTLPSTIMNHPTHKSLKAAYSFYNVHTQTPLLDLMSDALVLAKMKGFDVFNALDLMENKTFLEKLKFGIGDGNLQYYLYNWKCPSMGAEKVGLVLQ

Series [5] deals with T3, Glycylpeptide N-tetradecanoyltransferase 1 (Homo sapiens, UniProt P30419, A452M/L453V/L462V/L495M/N473H/Q496L/R295Q/W297F).
Series [6] has as its target Glycylpeptide N-tetradecanoyltransferase (Leishmania major, UniProt Q4Q5S8, L421Q). The series is described as follows: Inhibition of Leishmania major NMT L421Q mutant expressed in Escherichia coli Rosetta-2 cells using GSNKSKPK as substrate in presence of MyrCoA after 30 mins by CPM dye based fluorescence assay.
The target of series [7] is Glycylpeptide N-tetradecanoyltransferase (Leishmania major, UniProt Q4Q5S8, H398N). Briefly: Inhibition of Leishmania major NMT H398N mutant expressed in Escherichia coli Rosetta-2 cells using GSNKSKPK as substrate in presence of MyrCoA after 30 mins by CPM dye based fluorescence assay.
For series [8], the target named is T4, Glycylpeptide N-tetradecanoyltransferase (Leishmania major) (UniProt Q4Q5S8).
T4 sequence (whole entry): T1 sequence (Q4Q5S8 whole entry)

The target of series [9] is Genome polyprotein (dengue virus type 2) (UniProt P29990). The series is described as follows: Inhibition of Dengue virus 2 NS2B-NS3 protease at 100 uM.
For series [10], the target named is T4, Glycylpeptide N-tetradecanoyltransferase (Leishmania major). The conditions noted are these: 500 uM.
Series [11] addresses T5, NMT1 (glycylpeptide N-tetradecanoyltransferase 1) (Homo sapiens, UniProt P30419).
T5 sequence (P30419 whole entry): T2 sequence (P30419 whole entry)
The note with it: probe GSNKSKPK peptide.

The target in series [12] is T3, Glycylpeptide N-tetradecanoyltransferase 1. The note with it: 0.5 h.

pKi: −log10 of the molar value. Calls of active or inactive are those of the source. No cut-off for these calls is given here.

T3 sequence (P30419 whole entry R295Q/W297F/A452M/L453V/L462V/N473H/L495M/Q496L): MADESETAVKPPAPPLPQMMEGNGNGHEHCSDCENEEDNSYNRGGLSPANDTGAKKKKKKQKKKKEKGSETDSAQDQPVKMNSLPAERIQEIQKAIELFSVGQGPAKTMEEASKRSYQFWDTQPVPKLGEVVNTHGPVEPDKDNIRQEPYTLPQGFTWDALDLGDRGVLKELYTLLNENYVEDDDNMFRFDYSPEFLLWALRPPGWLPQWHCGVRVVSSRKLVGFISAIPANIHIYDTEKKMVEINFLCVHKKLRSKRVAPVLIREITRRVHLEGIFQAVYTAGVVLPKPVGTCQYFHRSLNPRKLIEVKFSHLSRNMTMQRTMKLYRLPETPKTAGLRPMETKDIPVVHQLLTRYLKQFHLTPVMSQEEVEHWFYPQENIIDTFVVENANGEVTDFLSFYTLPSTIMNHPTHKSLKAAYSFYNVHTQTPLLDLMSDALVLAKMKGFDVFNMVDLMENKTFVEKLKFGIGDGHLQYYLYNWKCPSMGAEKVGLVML
Chain of Glycylpeptide N-tetradecanoyltransferase (Leishmania major, UniProt Q4Q5S8, H398N) (Q4Q5S8 whole entry H398N): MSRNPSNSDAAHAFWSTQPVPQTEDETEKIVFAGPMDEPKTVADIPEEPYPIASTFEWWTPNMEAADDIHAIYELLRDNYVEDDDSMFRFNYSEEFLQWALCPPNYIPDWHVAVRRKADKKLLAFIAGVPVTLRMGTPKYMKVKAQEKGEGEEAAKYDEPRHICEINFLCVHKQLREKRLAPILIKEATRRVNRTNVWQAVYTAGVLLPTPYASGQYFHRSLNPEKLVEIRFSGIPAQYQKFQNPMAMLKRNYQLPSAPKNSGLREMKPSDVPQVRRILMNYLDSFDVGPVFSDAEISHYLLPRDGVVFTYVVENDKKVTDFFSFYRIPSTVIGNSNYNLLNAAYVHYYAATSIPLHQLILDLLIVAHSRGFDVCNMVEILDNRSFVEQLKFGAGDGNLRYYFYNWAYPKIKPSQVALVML
Chain of Glycylpeptide N-tetradecanoyltransferase (Leishmania major, UniProt Q4Q5S8, L421Q) (Q4Q5S8 whole entry L421Q): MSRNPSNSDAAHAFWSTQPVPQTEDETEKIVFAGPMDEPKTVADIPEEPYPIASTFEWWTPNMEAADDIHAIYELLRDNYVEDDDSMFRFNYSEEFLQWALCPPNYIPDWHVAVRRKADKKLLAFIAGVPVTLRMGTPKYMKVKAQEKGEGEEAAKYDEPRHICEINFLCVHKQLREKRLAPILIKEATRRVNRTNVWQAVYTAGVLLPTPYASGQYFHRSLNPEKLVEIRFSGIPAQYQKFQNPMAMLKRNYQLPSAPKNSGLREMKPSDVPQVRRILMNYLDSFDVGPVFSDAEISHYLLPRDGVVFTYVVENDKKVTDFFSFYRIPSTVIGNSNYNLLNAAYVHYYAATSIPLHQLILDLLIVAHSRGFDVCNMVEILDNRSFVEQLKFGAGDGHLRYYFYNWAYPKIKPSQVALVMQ
Chain of Glycylpeptide N-tetradecanoyltransferase 1 (Homo sapiens, UniProt P30419, L495M/N473H/Q496L) (P30419 whole entry N473H/L495M/Q496L): as the sequence (P30419 whole entry R295Q/W297F/A452M/L453V/L462V/N473H/L495M/Q496L) above, with Q295R, F297W, M452A, V453L, V462L counted along it

As a reminder, the pKi is −log10 of the Ki, conventionally taken in molar units. On to `N[C@@H](CC(=O)N1C[C@H](CO)[C@@H](c2ccc(Cl)cc2)C1)Cc1ccc(Cl)cc1`, for which the negative logarithm of the Ki (pKi) in series [1] is 6.55; in series [3] it was 6.38; in [4], 5.54; in series [5], 7.53. Besides, the selectivity ratio in series [2] worked out at 10.5.
For `Cc1nn(C)c(C)c1N(C)S(=O)(=O)c1c(Cl)cc(CCCN2CCN3CCC[C@@H]3C2)cc1Cl`, the pKi in [1] was 8.70; in [6], 7.44; in series [7] it was 8.89.
For the compound `COc1cccc(Cc2noc(-c3ccccc3OC3CCNCC3)n2)c1`, the pKi in [1] was 7.15; in [3], 5.68; in series [4], 5.48; in series [5], 7.48. Besides, in series [2], the selectivity ratio was 47.8.
For the compound `O=C(Cc1ccc(F)cc1)Nc1ccc2[nH]cc(C3CCNCC3)c2c1`, the figures for the pKi in [1], in [6] and in series [7] were 6.01, 5.59 and 6.28, respectively.
Taken in the same sequence, the figures for `Cc1nn(C)c(C)c1N(C)S(=O)(=O)c1c(Cl)cc(CCCN2CCNCC2)cc1Cl` were 7.70, 8.64 and 8.80.
The inhibition is the drop in the measured response relative to a control, in per cent. With `COc1cccc(-n2cc(-c3ccnc(NCCC4CCCN4C)n3)cn2)c1` (centres undefined), the inhibition result in [8] is “Dose-dependent effect”; in series [10], 97%. The same compound had a pKi in [1] of 8.14. In [9], the inhibition result was “inactive”.
In the case of `Cc1cncn1C(C)C(=O)NCc1cccnc1C1CCCN(C)CC1` (centres undefined), the inhibition result is “Dose-dependent effect” in [8] and 90% in series [10]. In series [1], this compound had a pKi of 7.28. For the same compound, the inhibition result in series [9] was “inactive”.
With `Cc1nn(C)c(C)c1NS(=O)(=O)c1c(Cl)cc(-c2ccnc(N3CCN(C)CC3)c2)cc1Cl`, the pKi was 8.85 in series [1], 8.22 in series [6] and 8.07 in series [7].
For `COc1ccccc1-n1cc(-c2ccnc(NCCC3CCCN3C)n2)cn1` (centres undefined), the inhibition result in series [8] is “Dose-dependent effect”; in series [10], 91%. Also, the pKi in series [1] was 7.71; in [4], less than 7.40; in [5], 4.78. For the same compound, in [9], the inhibition entry is “inactive”. In addition, the inhibition at 0.5 h, 500 µM in series [11] is 59%. Moreover, in [12], the inhibition at 500 µM stood at 98%.
On to `Cc1nn(C)c(C)c1Cc1nnc(-c2cc(Cl)ccc2OC2CCNCC2)o1`, for which the pKi in series [1] is 7.61.
